Assay results as given in PubChem BioAssay AID1919017 (Molecular Pharmacology Branch, DTP, NCI, 2023).

System: SW1271 complex spheroids with HUVEC/MSC, growth, % test/control
Assay: Anticancer human tumor SW1271 cell line growth inhibition [AhR];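 note: spheroids exposed to agents for 7 days before readout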
Conditions: for IC50: curve of first compound; for viability, T/C: stronger effect = lower value
Excerpt: Multicellular complex tumor spheroid response to aryl hydrocarbon receptor antagonists in combination with a variety of drugs and investigational agents in selected tumor cell lines
The current study was undertaken to assess response to aryl hydrocarbon receptor antagonists in combination with standard-of-care drugs and investigational agents in solid tumor complex spheroid models. Complex spheroids include a stromal component modeled by human endothelial cells (HUVEC) and fibroblasts modeled by human mesenchymal stem cells (MSCs). The concentration ranges selected for each drug and investigational agent were based upon clinically achievable concentrations if the clinical Cmax of the agent was known.
Compounds. The drugs and investigational agents: BAY 2416964 (NSC825713), GNF351 (NSC835774), CH-223191 (NSC835775), CPI-455 (NSC825282), aza-TdCyd (NSC777586), decitabine (NSC127716), belinostat (NSC758774), entinostat (NSC756642), pevonedistat (NSC761192), tazemetostat (NSC777109), talazoparib (NSC765396), olaparib (NSC753686), selinexor (NSC780203), nedisertib (M3814, NSC802822), bortezomib (NSC756655), venetoclax (NSC766270), doxorubicin (NSC123127), elimusertib (BAY189344, NSC800525), ceralasertib (AZD6738, NSC777638), TAK-243 (NSC785004), alisertib (NSC759677), etoposide (NSC141540), topotecan (NSC609699), eribulin (NSC707389), gemcitabine (NSC613327), carboplatin (NSC241240), cisplatin (NSC119875), and SN-38 (NSC673596) were obtained from the National Cancer Institute (NCI) Developmental Therapeutics Program Chemical Repository (32). The FDA-approved anticancer drug set is available from the Developmental Therapeutics Program at https://dtp.cancer.gov/organization/dscb/obtaining/available plates.htm. […] The stock solutions were prepared in dimethyl sulfoxide (DMSO, Sigma-Aldrich, St. Louis, MO, cat. D2650), except for the platinum compounds which were prepared in saline (Quality Biological, Gaithersburg, MD, cat. 114-055-101), at 800-fold the tested concentration and stored at -70 degrees C prior to their use. All drugs and investigational agents were tested over a range starting from a high concentration at or near the clinical Cmax and decreasing in half-log increments. If the clinical Cmax for an agent had not been determined, the highest concentration tested was 10 microM (Table 1).
Cell Culture. All cells were maintained in an incubator at 37 degrees C and 5% CO2 with 95% humidity. The PDC lines were cultured according to standard operating procedures established by the NCI PDMR (https://pdmr.cancer.gov). Briefly, all PDCs were thawed and cultured in Matrigel-coated flasks prepared with a working solution of 1X Ham's F-12 nutrient mix, without supplementation (Invitrogen, Waltham, MA, cat. 11765054), 100 U/mL penicillin-streptomycin (Invitrogen, cat. 15140122), and 2.5% Matrigel (Corning Inc., Corning, NY, cat. 354248) for the first three passages. All PDCs were cultured in complete DMEM/F-12 media containing advanced DMEM/F-12 (Invitrogen, cat. 12634028), 4.9% defined fetal bovine serum, heat inactivated (HyClone Laboratories Inc., Logan, UT, cat. SH30070.03HI), 389 ng/mL hydrocortisone (Sigma-Aldrich, cat. H4001), 9.7 ng/mL human EGF recombinant protein (Invitrogen, cat. PHG0313), 23.4 microg/mL adenine (Sigma-Aldrich, cat. A2786), 97.3 U/mL penicillin-streptomycin (Invitrogen, cat. 15140122), 1.9 mM L-glutamine (Invitrogen, cat. 25030081), and 9.7 microM Y-27632 dihydrochloride (Tocris Bioscience, Bristol, United Kingdom, cat. 1254). The PDCs were cultured in complete DMEM/F12 media without 10 microM Y-27632 dihydrochloride for at least two passages prior to the screen. The established cell lines NCI-H1341 and […] were cultured in DMEM/F-12, HEPES (Invitrogen, cat. 11330032), 5% defined fetal bovine serum (HyClone Laboratories Inc., cat. SH30070.03), ITS premix universal culture supplement [insulin (5 microg/mL), transferrin (5 microg/mL), and selenious acid (5 ng/mL)] […]

[1] = second compound 0.1 µM, first compound 0.0316 µM
[2] = second compound 0.1 µM, first compound 0.1 µM
[3] = second compound 0.316 µM, first compound 0.0316 µM
[4] = second compound 0.316 µM, first compound 0.1 µM
[5] = second compound 1 µM, first compound 0.0316 µM
[6] = second compound 1 µM, first compound 0.1 µM
[7] = second compound 3.16 µM, first compound 0.0316 µM
[8] = second compound 3.16 µM, first compound 0.1 µM
[9] = second compound 10 µM, first compound 0.0316 µM
[10] = second compound 10 µM, first compound 0.1 µM
[11] = second compound 0.1 µM, first compound 0.316 µM
[12] = second compound 0.1 µM, first compound 1 µM
[13] = second compound 0.1 µM, first compound 3.16 µM
[14] = second compound 0.1 µM, first compound 10 µM
[15] = second compound 0.316 µM, first compound 0.316 µM
[16] = second compound 0.316 µM, first compound 1 µM
[17] = second compound 0.316 µM, first compound 3.16 µM
[18] = second compound 0.316 µM, first compound 10 µM
[19] = second compound 1 µM, first compound 0.316 µM
[20] = second compound 1 µM, first compound 1 µM
[21] = second compound 1 µM, first compound 3.16 µM
[22] = second compound 1 µM, first compound 10 µM
[23] = second compound 3.16 µM, first compound 0.316 µM
[24] = second compound 3.16 µM, first compound 1 µM
[25] = second compound 3.16 µM, first compound 3.16 µM
[26] = second compound 3.16 µM, first compound 10 µM
[27] = second compound 10 µM, first compound 0.316 µM
[28] = second compound 10 µM, first compound 1 µM
[29] = second compound 10 µM, first compound 3.16 µM
[30] = second compound 10 µM, first compound 10 µM

SMILES | IC50 (second compound 0.1 µM) [µM] | IC50 (second compound 0.316 µM) [µM] | IC50 (second compound 1 µM) [µM] | IC50 (second compound 3.16 µM) [µM] | IC50 (second compound 10 µM) [µM] | viability, T/C [1] [%] | viability, T/C [2] [%] | viability, T/C [3] [%] | viability, T/C [4] [%] | viability, T/C [5] [%] | viability, T/C [6] [%] | viability, T/C [7] [%] | viability, T/C [8] [%] | viability, T/C [9] [%] | viability, T/C [10] [%] | viability, T/C [11] [%] | viability, T/C [12] [%] | viability, T/C [13] [%] | viability, T/C [14] [%] | viability, T/C [15] [%] | other results
CC[C@@]1(O)C(=O)OCc2c1cc1n(c2=O)Cc2cc3c(CN(C)C)c(O)ccc3nc2-1 + CC(CO)NC(=O)c1cc(-c2ccc(Cl)cc2)nn(-c2cnn(C)c2)c1=O | > 0.1 | > 0.1 | > 0.1 | > 0.1 | > 0.1 | 65.8 | 58 | 68.2 | 50.2 | 57.2 | 62.8 | 61.8 | 53.5 | 60.2 | 51.9 | – | – | – | – | – | viability, T/C (second compound 0.1 µM, first compound 0.000316 µM): 93.6%; viability, T/C (second compound 0.1 µM, first compound 0.001 µM): 91.3%; viability, T/C (second compound 0.1 µM, first compound 0.00316 µM): 75.2%; viability, T/C (second compound 0.1 µM, first compound 0.01 µM): 81.6%; viability, T/C (second compound 0.316 µM, first compound 0.000316 µM): 92.9%; viability, T/C (second compound 0.316 µM, first compound 0.001 µM): 70.6%; viability, T/C (second compound 0.316 µM, first compound 0.00316 µM): 91.1%; viability, T/C (second compound 0.316 µM, first compound 0.01 µM): 87.4%; viability, T/C (second compound 1 µM, first compound 0.000316 µM): 81%; viability, T/C (second compound 1 µM, first compound 0.001 µM): 73.6%; viability, T/C (second compound 1 µM, first compound 0.00316 µM): 84.4%; viability, T/C (second compound 1 µM, first compound 0.01 µM): 87%; viability, T/C (second compound 3.16 µM, first compound 0.000316 µM): 77.9%; viability, T/C (second compound 3.16 µM, first compound 0.001 µM): 85.2%; viability, T/C (second compound 3.16 µM, first compound 0.00316 µM): 69.8%; viability, T/C (second compound 3.16 µM, first compound 0.01 µM): 61.6%; viability, T/C (second compound 10 µM, first compound 0.000316 µM): 75.8%; viability, T/C (second compound 10 µM, first compound 0.001 µM): 73.8%; viability, T/C (second compound 10 µM, first compound 0.00316 µM): 63.5%; viability, T/C (second compound 10 µM, first compound 0.01 µM): 69.3%
COc1cc(C2c3cc4c(cc3C(OC3OC5COC(C)OC5C(O)C3O)C3COC(=O)C23)OCO4)cc(OC)c1O (stereo not given) + CC(CO)NC(=O)c1cc(-c2ccc(Cl)cc2)nn(-c2cnn(C)c2)c1=O | 9.25 | 5.01 | 8.48 | 3.03 | 2.91 | 78.3 | 74.3 | 93.5 | 77.6 | 64.7 | 78.5 | 70.9 | 68 | 71.1 | 65 | 66.5 | 72.7 | 57.1 | 49.5 | 60.4 | viability, T/C [16]: 57.9%; viability, T/C [17]: 56%; viability, T/C [18]: 44.5%; viability, T/C [19]: 59.4%; viability, T/C [20]: 60.1%; viability, T/C [21]: 61.6%; viability, T/C [22]: 47.7%; viability, T/C [23]: 59.6%; viability, T/C [24]: 45.2%; viability, T/C [25]: 59.2%; viability, T/C [26]: 43.6%; viability, T/C [27]: 50.7%; viability, T/C [28]: 63.7%; viability, T/C [29]: 43.4%; viability, T/C [30]: 48.3%
Nc1ccn(C2OC(CO)C(O)C2(F)F)c(=O)n1 (stereo not given) + CC(CO)NC(=O)c1cc(-c2ccc(Cl)cc2)nn(-c2cnn(C)c2)c1=O | > 10 | 2.07 | > 10 | 3.71 | 5.27 | 59 | 55 | 56.5 | 59.8 | 53.1 | 60.3 | 48.4 | 58.7 | 45.3 | 58.1 | 52.6 | 60.9 | 54.9 | 63.9 | 46.3 | viability, T/C [16]: 50.3%; viability, T/C [17]: 54.9%; viability, T/C [18]: 46.1%; viability, T/C [19]: 59%; viability, T/C [20]: 61.2%; viability, T/C [21]: 53.6%; viability, T/C [22]: 55.3%; viability, T/C [23]: 56.1%; viability, T/C [24]: 59.4%; viability, T/C [25]: 47.8%; viability, T/C [26]: 42.4%; viability, T/C [27]: 57.4%; viability, T/C [28]: 59.8%; viability, T/C [29]: 54.5%; viability, T/C [30]: 44%
